System: Kornkäfer (sitophilus granarius L)
Test: whole plant or invertebrate
Type: in vivo
Details: for Wirksamkeit in % Substanz allein / mortality at 1000 µg/mL: amine 1 mg/ml in Aceton mixed 1 : 1 with Aceton, 2 ml per dish, 25 weevils, dead counted after 3 h; for Wirksamkeit in % Substanz +Ripcord: amine 1 mg/ml mixed 1 : 1 with Ripcord 0,01 mg/ml; for Wirksamkeit in % Substanz +Ripcord / Wirksamkeit in % Substanz +Talcord / mortality at 100 µg/mL: 3 h; for Wirksamkeit in % Substanz +Talcord: amine 1 mg/ml mixed 1 : 1 with Talcord 0,01 mg/ml; for mortality at 1000 µg/mL / mortality at 100 µg/mL: Sitophilus granarius; for mortality at 1000 µg/mL: read-out: Wirksamkeit in % Substanz allein; for % Wirkung Substanz +Ripcord / % Wirkung Substanz +Talcord: Pyrethroid : Amin 1 : 10, amine 0,1 mg/ml, 180 min; for mortality at 100 µg/mL: amine 0,1 mg/ml (as for Pyrethroid : Amin 1 : 10), read-out: % Wirkung Substanz allein
Procedure: Test von tertiären, heterocyclischen Aminen allein und im Gemisch mit Pyrethroiden an Kornkäfern (sitophilus granarius L)
In Petrischalen mit 15 cm Durchmesser mit talcumbepuderten Seitenwänden, um das Entfliehen der Kornkäfer zu verhindern, wurden jeweils 2 ml der Acetonlösungen einpipettiert und durch vorsichtiges Schwenken der Schalen gleichmäßig auf dem Boden verteilt. Nach dem Abdampfen des Acetons und dem Antrocknen der Beläge wurden in jede Schale 25 Kornkäfer eingezählt. Nach einer Stunde wurde jeweils ein 12,5 cm Rundfilter in die Schalen eingelegt, um den Käfern das Befreien aus der Rückenlage zu ermöglichen, was auf der glatten Glasplatte nicht möglich ist. Die lichtscheuen Käfer verkrochen sich mit Vorliebe unter die Filter und blieben so ständig mit den Wirkstoffbelägen in Kontakt. Alle Versuche liefen mit 3 Wiederholungen. Nach 3 h wurden die toten Käfer ausgezählt.
In der Tabelle 3 ist jeweils der Durchschnitt der Summe der 4 Einzelwerte angegeben. 25 tote Kornkäfer entsprechen dabei einer Wirkung von 100 %. Die Temperaturen betrugen während der Tests im Durchschnitt 19 - 21°C. Der synergistische Faktor berechnet sich analog wie in Beispiel 1 angegeben.
Die zu prüfenden tertiären, heterocyclischen Amine wurden - mit 1 mg Wirkstoff pro ml als Acetonlösungen angesetzt. Sie wurden im Verhältnis 1 : 1 mit Ripcord bzw. Talcord, die mit 0,01 mg Wirkstoff pro ml als Acetonlösung vorlagen, gemischt. Die Einzelkomponenten wurden im Verhältnis 1 : 1 mit Aceton gemischt.
Auch bei diesen Versuchen zeigten die Kontrollversuche stets bei Versuchsende eine Mortalität der Kornkäfer von 0 %.
Die synergistische Wirkung der tertiären, heterocyclischen Amine auf die Pyrethroide ist auch dann noch deutlich, wenn das Amin in wesentlich niederen Aufwandmengen eingesetzt wird, als dies in Beispiel 3 beschrieben wurde. Die Ergebnisse sind in der Tabelle 4 zusammengestellt. Dieser Versuch zeigt auch, daß Amine mit insektiziden Eigenschaften, wenn sie in Konzentrationen unterhalb ihres insektiziden Wirkungsbereiches eingesetzt werden, immer noch gute synergistische Wirkungen im Gemisch mit Pyrethroiden zeigen. Die Versuche wurden wie im Beispiel 3 beschrieben mit Kornkäfern durchgeführt. Es wurden lediglich die Konzentrationen der eingesetzten tertiären, heterocyclischen Amine geändert. Für die Verdünnung Pyrethroid : Amin = 1 : 10 wurde das Amin mit 0,1 mg Wirkstoff/ml Acetonlösung eingesetzt. Für die Verdünnung 1 : 5 mit 0,05 mg Wirkstoff/ml.

[1] = amine 1 mg/ml + Ripcord 0,01 mg/ml
[2] = amine 1 mg/ml + Talcord 0,01 mg/ml

Row | Compound | Synergistischer Faktor bei Ripcord [1] | Synergistischer Faktor bei Talcord [2] | Wirksamkeit in % Substanz allein | Wirksamkeit in % Substanz +Ripcord | Wirksamkeit in % Substanz +Talcord | mortality at 1000 µg/mL [%] | % Wirkung Substanz +Ripcord | % Wirkung Substanz +Talcord | mortality at 100 µg/mL [%] | Synergistischer Faktor bei Ripcord (Pyrethroid : Amin 1 : 10) | Synergistischer Faktor bei Talcord (Pyrethroid : Amin 1 : 10)
1 | CC(C)=CCCC(C)=CCN1CCCCC1 [N-1-Piperidino-3,7-dimethyl-octadien-(2,6)] | 2,79 | 8,37 | 0% | 88,0% | 81,2% |  |  |  |  |  | 
2 | C#CCN1CCCCC1CC (stereo not drawn) [N-1-Propanrgyl-2-ethyl-piperidin] | 2,92 | 3,84 | 0% | 92,0% | 37,2% |  |  |  |  |  | 
3 | CCCCCCCCCCCCCCN1CCCC1 [N-1-Tetradecyl-pyrrolidin] | 1,59 |  |  | 50,0% | 6,0% | 0 |  |  |  |  | 
4 | CCCCCCCCCCCCCN1CCCC1 [N-1-Tridecyl-pyrrolidin] | 1,78 | 2,19 |  | 78,8% | 44,0% | 22.8 |  |  |  |  | 
5 | CCCCCCCCCCCN1CCCCCC1 [N-1-Undecyl-hexamethylenimin] |  |  |  | 73,1% | 81,2% | 0 | 92,0% | 73,2% | 0 |  | 
6 | CCCCCCCCCCCN1CCCC1 [N-1-Undecyl-pyrrolidin] |  |  |  |  |  |  | 97,2% | 72,0% | 0 | 3,09 | 7,42
7 | c1ccc(OCCN2CCCCCC2)cc1 [N-2-Phenoxi-ethyl-(1)-hexa-methylenimin] | 2,70 | 5,09 | 0% | 85,2% | 49,4% |  |  |  |  |  | 
8 | c1ccc(OCCN2CCCCC2)cc1 [N-2-Phenoxi-ethyl-(1)-piperidin] | 2,54 | 6,60 | 4,0% | 84,0% | 68,0% |  |  |  |  |  | 
9 | CCCCCCCCCC(C)N1CCCC1 (stereo not drawn) [N-2-Undecyl-pyrrolidin] | 1,36 |  |  | 98,8% | 64,0% | 56 |  |  |  |  | 
10 | c1ccc(OCCCN2CCCCCC2)cc1 [N-3-Phenoxi-propyl-(1)-hexamethylenimin] | 2,03 | 3,42 | 0% | 64,0% | 33,2% |  |  |  |  |  | 
11 | Clc1ccc(CN2CCCCC2)cc1 [N-4-Chlor-benzyl-piperidin] | 2,37 | 4,82 | 0% | 74,8% | 46,8% |  |  |  |  |  | 

— EP0029617A1, “Use of tertiary heterocyclic amines as synergists in pesticides; derivatives of cycloamines” (priority 1979, dated 1981)
